Assay results from US12415810B2, “2'-isopropyl-spiro (3,3'-pyrrolidine oxindole) liver X receptor regulator, preparation method therefor, and use thereof” (SHENZHEN CELL INSPIRE PHARMACEUTICAL DEVELOPMENT CO., LTD., priority 2019, dated 2025).
Read-outs that look alike come from different tables or passages of the source. Each block holds one molecule with its values, some of them ahead of it.

Assays:
liver X receptors = assay: Liver X receptor activity test, (subtype not named); format: cell-based, human; conditions: for activation of liver X receptors (in words): summary of Table 2; for inverse activation of liver X receptors (in words): summary of Table 1
Description: (§1) (1) Cell culture: human embryonic kidney cells (HEK293T cells) were cultured in DMEM (high glucose) medium containing 10% fetal bovine serum and 1% penicillin-streptomycin under conditions of 37° C. and 5% CO2.
(§2) (2) Transfection: HEK293T cells were seeded in a 96-well plate with a cell density of 2×10^4 cells/well. After 24 hours, the cells were transfected according to instructions of Lipofectamine™ 3000 reagent. The specific steps of transfection were as follows: • (1) adding 15 μL of L3000 reagent to 500 μL of DMEM (high sugar) medium, and vortex oscillating for 2 seconds; • (2) mixing 6.5 μg of pGL3/(DR-4)-c-fos-FF-luc plasmid, 0.13 μg of pCMV/Renilla-luc plasmid, 1.3 μg of pSG5/hLXRα (or pSG5/hLXRβ plasmid), 1.3 μg of pSG5/hRXRα plasmid, and 19 μL of P3000 reagent in 500 μL of DMEM (high sugar) medium; • (3) adding the plasmid mixture to a liposome mixture and standing by at room temperature for 20 minutes; and • (4) adding 10 μL of liposome-DNA solution to each well of the 96-well plate, and gently shaking the 96-well plate to mix well.
(§3) (3) Drug intervention: after 5 hours of transfection, the compounds to be tested were added, and the plate was placed in an incubator to continue culturing for 20 hours.
(§4) (4) Detection: dual-luciferase reporter gene system was used for detection. The specific steps of detection were as follows: • (1) aspirating the original medium in the 96-well plate, adding cell lysate to the 96-well plate at 20 μL/well, and quickly shaking the plate at room temperature for 20 minutes; • (2) adding samples to a 384-well plate at 20 μL/well; • (3) adding firefly luciferase substrate to each well at 10 μL/well, and measuring chemiluminescence after 7 seconds; and • (4) adding Renilla luciferase substrate to the same sample well at 100 μL/well, and measuring chemiluminescence after 7 seconds.
(§5) Result processing: the results were analyzed using Renilla luciferase activity to correct the firefly luciferase activity.

LXRα = molecular target: T1, LXRα (Homo sapiens, UniProt Q13133); assay: Liver X receptor activity test, dual-luciferase reporter gene in HEK293T cells (pSG5/hLXRα + hRXRα); format: cell-based; conditions: for EC50 / LXRα % Agonist effect: agonist activity
T1 construct: expressed in transfected cells; host or cells: HEK293T
T1 sequence (Q13133 1-447): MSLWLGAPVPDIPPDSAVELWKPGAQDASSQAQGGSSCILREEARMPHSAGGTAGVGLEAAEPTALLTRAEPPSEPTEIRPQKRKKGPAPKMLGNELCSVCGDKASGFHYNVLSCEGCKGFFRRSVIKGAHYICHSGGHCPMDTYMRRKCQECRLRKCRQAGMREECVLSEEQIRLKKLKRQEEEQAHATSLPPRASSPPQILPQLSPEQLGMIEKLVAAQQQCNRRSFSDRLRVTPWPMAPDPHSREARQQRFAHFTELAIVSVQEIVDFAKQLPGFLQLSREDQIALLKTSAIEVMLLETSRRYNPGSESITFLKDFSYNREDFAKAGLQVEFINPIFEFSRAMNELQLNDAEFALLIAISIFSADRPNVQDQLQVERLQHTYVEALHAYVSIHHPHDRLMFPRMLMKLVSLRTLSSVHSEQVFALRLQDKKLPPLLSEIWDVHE
T1 sequence (P19793 1-462 partner): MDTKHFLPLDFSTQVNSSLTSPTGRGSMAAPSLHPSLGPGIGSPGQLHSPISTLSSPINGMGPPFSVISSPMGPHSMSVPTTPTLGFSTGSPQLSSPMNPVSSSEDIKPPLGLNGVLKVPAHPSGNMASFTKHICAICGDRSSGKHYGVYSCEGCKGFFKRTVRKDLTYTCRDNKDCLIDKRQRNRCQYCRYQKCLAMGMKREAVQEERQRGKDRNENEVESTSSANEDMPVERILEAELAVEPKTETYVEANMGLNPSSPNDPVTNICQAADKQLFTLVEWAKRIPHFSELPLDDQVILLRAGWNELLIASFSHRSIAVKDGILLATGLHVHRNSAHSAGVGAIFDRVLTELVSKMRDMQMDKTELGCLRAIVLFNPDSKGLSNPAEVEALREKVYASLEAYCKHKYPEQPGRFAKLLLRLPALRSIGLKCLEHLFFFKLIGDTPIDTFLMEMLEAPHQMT
Description: as §1, §2, §3, §4, §5

LXRβ = molecular target: T2, LXRβ (Homo sapiens, UniProt P55055); assay: Liver X receptor activity test, dual-luciferase reporter gene in HEK293T cells (pSG5/hLXRβ + hRXRα); format: cell-based
T2 construct: expressed in transfected cells; host or cells: HEK293T
T2 sequence (P55055 1-460): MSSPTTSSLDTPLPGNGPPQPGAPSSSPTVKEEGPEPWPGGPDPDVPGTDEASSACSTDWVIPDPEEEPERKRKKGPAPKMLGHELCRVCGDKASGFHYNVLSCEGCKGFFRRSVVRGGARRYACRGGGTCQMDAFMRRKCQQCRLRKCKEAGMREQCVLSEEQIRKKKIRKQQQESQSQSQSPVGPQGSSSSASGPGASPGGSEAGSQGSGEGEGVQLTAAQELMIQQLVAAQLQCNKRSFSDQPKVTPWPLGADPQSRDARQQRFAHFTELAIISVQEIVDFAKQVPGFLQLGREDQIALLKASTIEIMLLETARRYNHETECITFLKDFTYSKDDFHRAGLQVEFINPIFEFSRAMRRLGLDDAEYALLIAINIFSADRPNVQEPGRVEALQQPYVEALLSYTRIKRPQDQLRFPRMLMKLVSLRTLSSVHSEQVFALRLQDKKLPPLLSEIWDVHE
T2 sequence (P19793 1-462 partner): T1 sequence (P19793 1-462 partner)
Description: as §1, §2, §3, §4, §5

[1] = tested on: SREBP-1c, ACC, FAS and SCD-1; assay: mRNA content of LXR downstream genes by qPCR in HepG2 cells; format: cell-based, human; conditions: 24 hours
Description: (§6) HepG2 cells were seeded in a 6-well plate with a cell density of 8×10^5 cells/well and incubated for 24 hours. The compounds to be tested were added and acted for 24 hours, and then the cells were harvested. The 3T3-L1 cells were harvested on day 6 of differentiation. The cells were washed twice with PBS, total RNA was extracted with RNAiso plus reagent, 1 μg of total RNA was reverse transcribed into cDNA using ReverTra Ace qPCR RT Master Mix, and PCR amplification was performed using SYBR Green Realtime PCR Master Mix.

3T3-L1 cells = assay: cells; conditions: Mus musculus, 3T3-L1, 144 h, read-out: IC50 for lowering the triglyceride level in 3T3-L1 cells
Description: (1) Cell culture: human liver cancer cells (HepG2 cells) and mouse pre-adipocytes (3T3L1 cells) were cultured in DMEM (high glucose) medium containing 10% fetal bovine serum and 1% penicillin-streptomycin under conditions of 37° C. and 5% CO2.
(3) The steps of differentiation preadipocytes 3T3-L1 were as follows:
Cells were seeded in a 48-well plate, cultured in complete medium until the cells were completely in contact (day 0), and the medium was changed to a differentiation medium I (complete medium supplemented with 2 μg/mL of insulin, 100 ng/mL of dexamethasone, 0.5 mM of 3-isobutyl-1-methylxanthine, and 10 ng/mL of biotin) to culture for 3 days. The blank control group was still continued being cultured with the complete medium. On day 3, the medium was changed to a differentiation medium II (complete medium supplemented with 2 μg/mL of insulin) and culturing was continued for 3 days. On day 6, the cells were harvested for subsequent analysis.
(4) Triglyceride test: the treated cells were harvested, washed twice with icy PBS (0.2 M NaCl, 10 mM Na2HPO4, 3 mM KCl, 2 mM KH2PO4, pH 7.4), breaking the cells with ultrasonic waves, and detecting absorbance at 510 nm using the triglyceride detection kit (Nanjing Jiancheng Bioengineering Institute).

HepG2 cells = assay: Triglyceride test in HepG2 cells induced by high glucose; format: cell-based, human; conditions: concentration of 10 μM, 24 hours
Description: (2) HepG2 cells were seeded in a 12-well plate, cultured with DMEM (low sugar) medium and starved for 12 hours. When the cells grow to a density of 70%, the medium was changed to DMEM (high sugar) medium and the compound was added to act for 24 hours.

[2] = tested on: SREBP-1c, ACC, FAS and SCD-1; assay: mRNA content of LXR downstream genes by qPCR in 3T3-L1 cells; format: cell-based, mouse; conditions: day 6 of differentiation
Description: as §6

[3] = tested on: Triton WR-1339-induced hyperlipidemia mice; assay: Lipid-lowering activity in Triton WR-1339-induced hyperlipidemia mice; format: in vivo, C57BL/6J mice; conditions: 100 mg/kg intragastric for 8 days
Description: 6-week-old SPF female C57BL/6J mice were purchased from the Experimental Animal Center of Sun Yat-sen University. The mice were randomly divided into 4 groups each including 6 mice, i.e., a normal control group, model a group, a fenofibrate group (100 mg/kg), and a B1 group (100 mg/kg), and intragastric administration was performed for 8 days. 24 hours before the last administration, the normal control group was intramuscularly injected with saline, and the remaining groups were injected with Triton WR-1339 (1500 mg/kg). One hour after the last administration, the eyeballs were removed to collect blood, the mice were executed by cervical dislocation, and the livers were collected. The plasma was allowed to stand for 1 hour, and the supernatant was collected by centrifugation at 4° C. and 3000 rpm. 100 mg of liver was weighed, added with methanol in 3 times the volume of the weighed liver, and homogenized thoroughly. Chloroform was then added in 6 times the volume and vortex oscillated. After centrifuging at 3000 rpm for 10 minutes, the lower chloroform layer was collected, and evaporated naturally overnight in a fume hood. 150 μL of 1% Triton ethanol was added and heated at 65° C. to be fully dissolved. Finally, triglycerides (TG), total cholesterol (TC), low-density lipoprotein cholesterol (LDL-C), and high-density lipoprotein cholesterol (HDL-C) in serum and liver samples were detected.

[4] = agonist activity, HEK293T reporter gene
[5] = inverse agonist activity, HEK293T reporter gene

activation of liver X receptors (in words) (liver X receptors): can activate liver X receptors | EC50 (LXRα): 3670 nM | LXRα % Agonist effect (LXRα): 76% | EC50 (LXRβ; [4]): 3040 nM | LXRβ % Agonist effect (LXRβ; [4]): 50%
SMILES: CC(C)[C@@H]1N(C(=O)C(C)(C)C)CC[C@@]12C(=O)N(c1cccc(-c3ccc(C(=O)N(C)C)c(Cl)c3)c1)c1ccccc12 [Compound 3b]

Emax (LXRβ; HEK-293T, 20 h, inverse agonist activity, HEK293T reporter gene, read-out: LXRβ % Inverse agonist effect): 64% | IC50 (LXRβ; [5]): 10100 nM
SMILES: CC(C)[C@@H]1N(C(=O)CC(C)(C)C)CC[C@@]12C(=O)N(c1cccc(-c3ccc4ccn(C)c4c3)c1)c1ccccc12 [Compound 4c]

EC50 (LXRα): 360 nM | LXRα % Agonist effect (LXRα): 100% | LXRβ % Agonist effect (LXRβ): 100% | EC50 (LXRβ; [4]): 210 nM
SMILES: O=C(O)Cc1cccc(OCCCN(Cc2cccc(C(F)(F)F)c2Cl)CC(c2ccccc2)c2ccccc2)c1 [GW3965, reference compound]

activation of liver X receptors (in words) (liver X receptors): can activate liver X receptors | EC50 (LXRα): 6920 nM | LXRα % Agonist effect (LXRα): 53%
SMILES: CC(C)[C@@H]1N(C(=O)OC(C)(C)C)CC[C@@]12C(=O)N(c1cccc(-c3ccc(C(=O)N(C)C)c(Cl)c3)c1)c1ccccc12 [Compound 3a]

activation of liver X receptors (in words) (liver X receptors): can activate liver X receptors
SMILES: CC(C)[C@@H]1N(C(=S)NC(C)(C)C)CC[C@@]12C(=O)N(c1cccc(-c3ccc(C(=O)N(C)C)c(Cl)c3)c1)c1ccccc12 [Compound 3c]

More lines, now with the values behind:

SMILES: CC(C)[C@@H]1N(C(=O)C(C)(C)C)CC[C@@]12C(=O)N(c1cccc(-c3ccc(CO)c(S(C)(=O)=O)c3)c1)c1ccccc12 [Compound 2d]
inverse activation of liver X receptors (in words) (liver X receptors): can inversely activate liver X receptors

SMILES: CC(C)[C@@H]1N(C(=O)CC(C)(C)C)CC[C@@]12C(=O)N(c1cccc(-c3ccc(CO)c(S(C)(=O)=O)c3)c1)c1ccccc12 [Compound 2c]
inverse activation of liver X receptors (in words) (liver X receptors): can inversely activate liver X receptors

SMILES: CCOC(=O)c1ccc(CN(Cc2ccc(-c3cccc(S(C)(=O)=O)c3)cc2)S(=O)(=O)c2c(C)cc(C)cc2C)o1 [SR9238, reference compound]
IC50 (LXRα; inverse agonist activity): 160 nM | LXRα % Inverse agonist effect (LXRα; inverse agonist activity): 93% | IC50 (LXRβ; [5]): 100 nM

SMILES: CC(C)[C@H]1N(C(=O)OC(C)(C)C)CC[C@]12C(=O)N(c1cccc(-c3ccc(CO)c(S(C)(=O)=O)c3)c1)c1ccccc12 [Compound 2a-1]
inverse activation of liver X receptors (in words) (liver X receptors): can inversely activate liver X receptors | mRNA content of ACC [1]: significantly reduced | mRNA content of FAS [1]: significantly reduced | mRNA content of SCD-1 [1]: significantly reduced | mRNA content of SREBP-1c [1]: significantly reduced | IC50 (3T3-L1 cells): 270 ± 30 nM | triglyceride accumulation in HepG2 cells induced by high glucose (HepG2 cells): significantly reduce | mRNA content of ACC [2]: reduced the mRNA content of SREBP-1c, ACC, FAS and SCD-1 in a concentration-dependent manner | mRNA content of FAS [2]: reduced the mRNA content of SREBP-1c, ACC, FAS and SCD-1 in a concentration-dependent manner | mRNA content of SCD-1 [2]: reduced the mRNA content of SREBP-1c, ACC, FAS and SCD-1 in a concentration-dependent manner | mRNA content of SREBP-1c [2]: reduced the mRNA content of SREBP-1c, ACC, FAS and SCD-1 in a concentration-dependent manner | triglyceride content in the livers of mice ([3]; liver): can reduce the triglyceride content | HDL-C/LDL-C level ([3]; serum): slightly increased | HDL-C/TC ([3]; serum): Neither fenofibrate nor compound 2a-1 had a significant effect | increase in HDL-C level induced by Triton WR-1339 ([3]; serum): significantly inhibit | increase in LDL-C level induced by Triton WR-1339 ([3]; serum): significantly inhibit | increase in TC level induced by Triton WR-1339 ([3]; serum): significantly inhibit | increase in TG level induced by Triton WR-1339 ([3]; serum): significantly inhibit

SMILES: CC(C)[C@@H]1N(C(=O)C(F)(F)F)CC[C@@]12C(=O)N(c1cccc(-c3ccc(CO)c(S(C)(=O)=O)c3)c1)c1ccccc12 [Compound 2b]
inverse activation of liver X receptors (in words) (liver X receptors): can inversely activate liver X receptors

SMILES: CC(C)[C@@H]1N(C(=O)OC(C)(C)C)CC[C@@]12C(=O)N(c1cccc(-c3ccc(CO)c(S(C)(=O)=O)c3)c1)c1ccccc12 [Compound 2a-2]
inverse activation of liver X receptors (in words) (liver X receptors): can inversely activate liver X receptors

SMILES: CC(C)[C@@H]1N(C(=O)OC(C)(C)C)CC[C@@]12C(=O)N(c1cccc(-c3ccc(CO)c(S(C)(=O)=O)c3)c1)c1ccccc12 [Compound 2a]
inverse activation of liver X receptors (in words) (liver X receptors): can inversely activate liver X receptors
